Laboratory results from patent publication US5763464A, “Retroviral agents containing anthranilamide, substituted benzamide and other subunits, and methods of using same” (The United States of America as represented by the …, priority 1995, dated 1998).
Read-outs that look alike come from different tables or passages of the source. Values belong to the molecule of their own block, whether it stands above or below them.

How the values were obtained:
[1] = biological target: T1, HIV-1 protease (wild-type, WT) (Human immunodeficiency virus type 1 group M subtype B, UniProt P04585); test: biochemical
T1 construct: purified HIV-1 protease (wild-type, WT)
Experimental: The inhibition constants (Ki) for the compounds of the above examples were determined using purified HIV-1 protease (wild-type, WT) (Tables I, II and III). Ki is an inhibition constant of a given compound as derived by enzyme kinetics. A low Ki represents a high affinity of the compound for the enzyme, i.e., tight binding or low dissociation. Inhibition of the cleavage was assayed using a fluorogenic substrate available from Molecular Probes, Inc., Eugene, Oreg., and described in Kageyama et al., Antimicrob. Agents. Chemother., 37, 272 (1993), and a fluorogenic substrate available from Bachem California, Torrance, Calif., and described in Kageyama et al. (1993), supra. Percent inhibition is the percentage inhibition of an enzyme's activity by a given compound at a given concentration.

[2] = test system: HIV-1 (CEM cells chronically infected with HIV-1); test: Anti-retroviral activity in CEM cells chronically infected with HIV-1, soluble formazan assay; type: cell-based; settings: Human immunodeficiency virus 1, CCRF-CEM
Experimental: Using the soluble formazan assay described by Weislow et al. (J. Nat'l. Cancer Inst., 81, 577-586 (1989)), CEM cells chronically infected with HIV-1 were used to assay the anti-retroviral activity of test compounds described herein. The concentration of compound that inhibits 50% of viral activity (EC50; determined as described in Weislow et al. (1989), supra) and the inhibition constant (Ki, as defined in Example 7) for the compound were determined.

CEM cells = test: Toxicity (IC50) in CEM cells, soluble formazan assay; settings: Homo sapiens, CCRF-CEM
HIV-1 = settings: cited from earlier work
[3] = Table I, unit inferred, read-out: Ki
[4] = comparison table, literature values by footnote

Ki ([1]; read-out: Ki): 8.4 nM
Compound: CC(C)(C)OC(=O)N[C@@H](Cc1ccccc1)[C@H](O)[C@H](O)[C@H](Cc1ccccc1)NC(=O)OC(C)(C)C [RS-196]

Ki [1, 3]: 6.6 nM
Compound: Cc1ccc(O)cc1C(=O)N[C@@H](Cc1ccccc1)C[C@H](O)[C@H](Cc1ccccc1)NC(=O)c1cc(O)ccc1C [RS-201]

Compound: Cc1c(O)cccc1C(=O)N[C@@H](Cc1ccccc1)[C@@H](O)C[C@H](Cc1ccccc1)NC(=O)c1cccc(N)c1 [AN-96, (2S,3S,5S)-2-[N-[(3-hydroxy-2-methylphenyl)carbonyl]amino]-5-[N-(3-aminophenyl)carbonyl]amino-1,6-diphenyl-3-hydroxy hexane]
EC50 ([2]; Table I): 630 to 58000 nM | IC50 (CEM cells): > 100000 nM | Ki [1]: 0.75 nM

EC50 ([2]; Table I, read-out: EC50): 630 to 1000 nM | Ki [1, 3]: 0.32 nM
Compound: Cc1c(O)cccc1C(=O)N[C@@H](Cc1ccccc1)[C@@H](O)C[C@H](Cc1ccccc1)NC(=O)O[C@H]1CCOC1 [AN-98]
IC50 (CEM cells): > 100000 nM

Compound: CC(C)(C)NC(=O)[C@@H]1CN(Cc2cccnc2)CCN1C[C@@H](O)C[C@@H](Cc1ccccc1)C(=O)N[C@H]1c2ccccc2C[C@H]1O [Indinavir]
EC50 (HIV-1; [4]): 50 nM

Ki [1, 3]: 276 nM
Compound: O=C(N[C@@H](Cc1ccccc1)[C@H](O)[C@H](O)[C@H](Cc1ccccc1)NC(=O)c1ccc(O)cc1)c1ccc(O)cc1 [Diol-51]

Compound: Cc1c(O)cccc1C(=O)N[C@@H](Cc1ccccc1)C[C@H](O)[C@H](Cc1ccccc1)NC(=O)c1cccc(O)c1C [DD-8]
EC50 ([2]; Table I, read-out: EC50): 400 nM | IC50 (CEM cells): 22000 nM | Ki ([1]; read-out: Ki): 0.8 nM

Compound: O=C(N[C@@H](Cc1ccccc1)C[C@H](O)[C@H](Cc1ccccc1)NC(=O)O[C@H]1CCOC1)O[C@H]1CCOC1 [RS-194]
EC50 ([2]; Table I): 6500 nM | IC50 (CEM cells): > 50000 nM | Ki [1]: 1.68 nM

EC50 ([2]; Table II, read-out: EC50): 1600 nM | Ki ([1]; Table II, read-out: Ki): 1.05 nM
Compound: CC(C)(C)NC(=O)N[C@@H](Cc1ccccc1)C[C@H](O)[C@H](Cc1ccccc1)NC(=O)c1ccccc1NC(=O)OCc1ccccn1 [AN-43]
IC50 (CEM cells): 33000 nM

Compound: CC(C)(C)OC(=O)N[C@@H](Cc1ccccc1)C[C@H](O)[C@H](Cc1ccccc1)NC(=O)c1ccccc1NC(=O)OCc1ccccn1 [AN-42]
EC50 ([2]; Table II, read-out: EC50): < 1000 nM | IC50 (CEM cells): 23000 nM | Ki ([1]; Table II, read-out: Ki): 0.85 nM

Ki [1, 3]: 96 nM
Compound: Nc1ccccc1C(=O)N[C@@H](Cc1ccccc1)C[C@H](O)[C@H](Cc1ccccc1)NC(=O)c1ccccc1N [AN-72]

Compound: Cc1c(O)cccc1C(=O)N[C@@H](Cc1ccccc1)[C@H](O)[C@H](O)[C@H](Cc1ccccc1)NC(=O)O[C@H]1CCOC1 [AN-76]
EC50 ([2]; Table I): 7500 nM | IC50 (CEM cells): > 50000 nM | Ki [1]: 2 nM

EC50 ([2]; Table I, read-out: EC50): 1300 nM | Ki [1, 3]: 0.46 nM
Compound: Cc1c(O)cccc1C(=O)N[C@@H](Cc1ccccc1)[C@@H](O)C[C@H](Cc1ccccc1)NC(=O)OCc1cccnc1 [AN-92, (2S,3S,5S)-2-[N-[(3-hydroxy-2-methylphenyl)carbonyl]amino]-5-[N-[(3-pyridinylmethoxy)carbonyl]amino]-1,6-diphenyl-3-hydroxy hexane]
IC50 (CEM cells): > 100000 nM

Compound: Cc1c(O)cccc1C(=O)N[C@@H](Cc1ccccc1)[C@@H](O)C[C@H](Cc1ccccc1)NC(=O)c1ccccc1NC(=O)OCc1ccccn1 [LL-82, (2S,3S,5S)-2-[N-[(3-hydroxy-2-methylphenyl)carbonyl]amino]-5-[N-[N-[(2-pyridinylmethoxy)carbonyl]anthranilyl]amino]-1,6-diphenyl-3-hydroxy hexane]
EC50 ([2]; Table III): 33 nM | IC50 (CEM cells): 40000 nM | Ki [1]: 0.06 ± 0.018 nM

Compound: O=C(Nc1ccccc1C(=O)N[C@@H](Cc1ccccc1)C[C@H](O)[C@H](Cc1ccccc1)NC(=O)O[C@H]1CCOC1)OCc1ccccn1 [LL-101, (2S,3S,5S)-5-[N-[N-((2-pyridinylmethoxy)carbonyl)anthranilyl]amino]2-[N-((3-S-(tetrahydrofuranyl)oxy)carbonyl)amino]-1,6-diphenyl-3-hydroxy hexane]
Ki [1]: 0.042 ± 0.007 nM

Compound: CC(C)c1nc(CN(C)C(=O)N[C@H](C(=O)N[C@@H](Cc2ccccc2)C[C@H](O)[C@H](Cc2ccccc2)NC(=O)OCc2cncs2)C(C)C)cs1 [Ritonavir]
EC50 (HIV-1; Example 13, literature values): 36 nM | EC50 (HIV-1; [4]): 36 nM

EC50 ([2]; Table I, read-out: EC50): 1300 nM | Ki [1, 3]: 0.66 nM
Compound: Cc1c(O)cccc1C(=O)N[C@@H](Cc1ccccc1)[C@@H](O)[C@@H](O)[C@H](Cc1ccccc1)NC(=O)OC(C)(C)C [RS-199]
IC50 (CEM cells): > 50000 nM

Ki ([1]; Table II, read-out: Ki): 5.9 nM
Compound: O=C(Nc1ccccc1C(=O)N[C@@H](Cc1ccccc1)[C@@H](O)[C@@H](O)[C@H](Cc1ccccc1)NC(=O)c1cccc(O)c1)OCc1ccccc1 [DN-3]

EC50 ([2]; Table I, read-out: EC50): 470 nM | Ki [1, 3]: 0.213 nM
Compound: Cc1c(O)cccc1C(=O)N[C@@H](Cc1ccccc1)[C@@H](O)C[C@H](Cc1ccccc1)NC(=O)OC(C)(C)C [RS-208, (2S,3S,5S)-2-[N-[(3-hydroxy-2-methylphenyl)carbonyl]amino]-5-[N-(tert-butyloxycarbonyl)amino]-1,6-diphenyl-3-hydroxy hexane]
IC50 (CEM cells): 23000 nM

Compound: Cc1ccccc1C(=O)N[C@@H](Cc1ccccc1)[C@H](O)[C@H](O)[C@H](Cc1ccccc1)NC(=O)c1ccccc1C [Diol-57]
Ki [1, 3]: 8 nM

EC50 ([2]; Table II, read-out: EC50): 900 nM | Ki ([1]; Table II, read-out: Ki): 1.77 nM
Compound: O=C(Nc1ccccc1C(=O)N[C@@H](Cc1ccccc1)[C@@H](O)[C@@H](O)[C@H](Cc1ccccc1)NC(=O)c1cccc(O)c1)OCc1ccccn1 [DN-4]
IC50 (CEM cells): 9000 to 28000 nM

Compound: CC(C)(C)OC(=O)N[C@@H](Cc1ccccc1)[C@@H](O)[C@@H](O)[C@H](Cc1ccccc1)NC(=O)c1ccccc1NC(=O)OCc1ccccn1 [DN-11]
EC50 ([2]; Table II, read-out: EC50): 490 nM | IC50 (CEM cells): 21000 nM | Ki ([1]; Example 2, read-out: Ki): 0.4 nM | Ki ([1]; Table II, read-out: Ki): 0.45 nM

Compound: CC(C)CN(C[C@@H](O)[C@H](Cc1ccccc1)NC(=O)O[C@H]1CCOC1)S(=O)(=O)c1ccc(N)cc1 [VX-478]
EC90 (HIV-1; comparison table, Kim et al., 1995, read-out: EC90 (EC50 column, footnote b)): 40 nM

Compound: Cc1c(O)cccc1C(=O)N[C@@H](Cc1ccccc1)[C@H](O)[C@H](O)[C@H](Cc1ccccc1)NC(=O)c1cccc(O)c1C [Diol-52]
EC50 ([2]; Table I): 900 nM | IC50 (CEM cells): 25000 nM | Ki [1, 3]: 1.2 nM

Ki ([1]; Table III, read-out: Ki): 0.76 nM
Compound: O=C(Nc1ccccc1C(=O)N[C@@H](Cc1ccccc1)[C@H](O)[C@H](O)[C@H](Cc1ccccc1)NC(=O)c1cccc(O)c1)OCc1ccccn1 [ND-4]

Compound: O=C(N[C@@H](Cc1ccccc1)[C@H](O)[C@H](O)[C@H](Cc1ccccc1)NC(=O)c1cccc(O)c1)c1cccc(O)c1 [Diol-10]
Ki ([1]; Table I, unit not given): 22/25

Compound: CC(C)C(NC(=O)OCc1ccccn1)C(=O)N[C@@H](Cc1ccccc1)[C@@H](O)[C@@H](O)[C@H](Cc1ccccc1)NC(=O)c1ccccc1NC(=O)OCc1ccccn1 (stereo partly drawn) [LL-73, (2S,3R,4S,5S)-2-[N-(N-(2-pyridinylmethoxy)valinyl)amino]-5-[N-[N-((2-pyridinylmethoxy)carbonyl)anthranilyl]amino]-3,4-dihydroxy-1,6-diphenyl hexane]
EC50 ([2]; Table III): 4 nM | IC50 (CEM cells): 47000 nM

Compound: Cc1c(O)cccc1C(=O)N[C@@H](Cc1ccccc1)C[C@H](O)[C@H](Cc1ccccc1)NC(=O)c1ccccc1NC(=O)OCc1ccccn1 [LL-69]
Ki ([1]; Table II, read-out: Ki): 0.68 nM

Ki [1, 3]: 3.65 nM
Compound: Cc1c(O)cccc1C(=O)N[C@@H](Cc1ccccc1)[C@@H](O)C[C@H](Cc1ccccc1)NC(=O)c1ccc(O)cc1 [AN-88]

Compound: Cc1c(O)cccc1C(=O)N[C@@H](Cc1ccccc1)[C@@H](O)[C@@H](O)[C@H](Cc1ccccc1)NC(=O)O[C@H]1CCOC1 [AN-78]
EC50 ([2]; Table I): 21000 nM | IC50 (CEM cells): > 50000 nM | Ki [1]: 1.43 nM

Compound: O=C(N[C@@H](Cc1ccccc1)[C@H](O)[C@H](O)[C@H](Cc1ccccc1)NC(=O)c1ccccc1)c1ccccc1 [Diol-56]
Ki [1, 3]: 40 nM

Ki [1, 3]: 8.3 nM
Compound: Cc1c(O)cccc1C(=O)N[C@@H](Cc1ccccc1)[C@H](O)[C@H](O)[C@H](Cc1ccccc1)NC(=O)OC(C)(C)C [RS-198]

Percent inhibition (Ki column) ([1]; Table I, 10μ): 32%
Compound: O=C(N[C@@H](Cc1ccccc1)[C@H](O)[C@H](O)[C@H](Cc1ccccc1)NC(=O)c1ccccc1O)c1ccccc1O [Diol-58]

Compound: CC(C)(C)NC(=O)[C@@H]1C[C@@H]2CCCC[C@@H]2CN1C[C@@H](O)[C@H](Cc1ccccc1)NC(=O)[C@H](CC(N)=O)NC(=O)c1ccc2ccccc2n1 [Sequinavir]
EC50 (HIV-1; Example 13, literature values): 10 nM | EC50 (HIV-1; [4]): 10 nM

Compound: O=C(N[C@@H](Cc1ccccc1)[C@H](O)[C@H](O)[C@H](Cc1ccccc1)NC(=O)O[C@H]1CCOC1)O[C@H]1CCOC1 [RS-205]
EC50 ([2]; Table I): 16000 nM | IC50 (CEM cells): > 150000 nM | Ki [1]: 4.6 nM

EC50 ([2]; Table II, read-out: EC50): 490 nM | Ki ([1]; Table II, read-out: Ki): 0.034 nM
Compound: CC(C)C(NC(=O)OCc1ccccn1)C(=O)N[C@@H](Cc1ccccc1)C[C@H](O)[C@H](Cc1ccccc1)NC(=O)c1ccccc1NC(=O)OCc1ccccn1 (some centres unmarked) [LL-68]
IC50 (CEM cells): 22000 nM

Compound: CC(C)(C)OC(=O)N[C@@H](Cc1ccccc1)[C@@H](O)[C@@H](O)[C@H](Cc1ccccc1)NC(=O)c1ccccc1NC(=O)OCc1ccccn1 [LL-70]
Ki ([1]; read-out: Ki): 0.14 nM

Ki [1, 3]: 1.88 nM
Compound: Cc1c(O)cccc1C(=O)N[C@@H](Cc1ccccc1)[C@@H](O)C[C@H](Cc1ccccc1)NC(=O)c1cccc(O)c1 [AN-89]

Ki ([1]; Table I, unit printed in the line, read-out: Ki): 1500 nM
Compound: COc1ccc(S(=O)(=O)N[C@@H](Cc2ccccc2)C[C@H](O)[C@H](Cc2ccccc2)NC(=O)c2cccc(O)c2C)cc1 [AN-91]
